# Test results from patent US20060270643A1, “Hyfroxyflutamide induced pathways related to androgen receptor negative prostate cancer cells” (priority 2002, published 2006).
# Entries after “also recorded” stand apart in the source; their conditions may differ.
# Assays:
# [1] = system: DU145 cells; assay: Cell proliferation assay (hemacytometer counting); format: cell-based, human
# Procedure: 10. […] (A) DU145 cells were seeded in 10% FBS DMEM medium and 24 hours later cells were changed to serum free medium. 48 hours later changed the medium to 0.5% FBS medium and treated with ethanol, HF, or EGF. Every 24 hours, the cells were counted by hemacytometer. […]. […] (B) DU145 cells were seeded and transfected with anti-sense oligonucleotide of Ras (IRIS 2503: 5′-[…]-3′), Raf (IIUS: 5132:5′-[…]-3′) and HIV (5′-[…]-3′) (Chen, G., Oh, S., Monia B. P., and Stacey, D. W., J. Biol. Chem., 271: 28259-28265, 1996, Monia, B. P., et al., Proc. Natl. Acad. Sci. USA, 93: 15481-15484, 1996.) by SuperFect (Qiagen). 24 hour after serum starvation, we changed the cells to medium containing 0.5% FBS, and treated the cells as described in A. Cells were counted by hemacytometer every 24 hours. The cell lysate were blotted with anti-H-Ras and Raf antibodies and β-actin was blotted for loading control.
# 199. DU145 cells were seeded at 2×10^4/ml on 35 mm plates and allowed to attach overnight. Cells were kept in serum-free DMEM medium for 24 hours, and then media were replaced with DMEM-0.5% FBS and treated as indicated. Cells were trypsinized and counted with a hemacytometer at different times after treatments. For the antisense oligonuleotide experiments, cells were incubated with a fixed ratio of oligonucleotide versus SuperFect (2.5 μl of SuperFect per 100 nM oligo) for 4 hours and then the oligo-containing medium was replaced with DMEM-0.5% FBS. Cells were trypsinized and counted by hemacytometer at indicated times.
# [2] = system: MAP kinase in PC-3 stably transfected with AR (PC3-AR2); assay: Immunoblot of phospho-ERK1/2 in PC3-AR2 cells; format: cell-based, human; settings: 15 mins
# [3] = system: MAP kinase in LNCaP cells; assay: Immunoblot of phospho-ERK1/2 in LNCaP cells; format: cell-based, human; settings: LNCaP cells (data not shown)
# [4] = system: p44/42 MAP kinase (ERK1 and 2); assay: Immunoblot of phosphorylated p44/42 MAP kinase in DU145 cells; format: cell-based, human
# Procedure: 7. […] (A) DU145 cells were grown in 100 mm dishes and serum-starved for 24 hours. The cells were lysed on ice. Equal amounts of cell lysate were analyzed by 12% SDS-PAGE and subsequent immunoblotted with anti-phospho ERK1/2 and anti-ERK1/2 antibodies. (B) Different cell lines, at 70 to 80% confluence, were lysed and immunoblotted with anti-AR polyclonal antibody, NH27. (C) DU145 cells were pre-incubated with MEK1/2 inhibitor U0126, or U0124 before HF, EGF, and ethanol treatment. Cells were lysed and immunoblotted with anti-phospho ERK1/2 and anti-ERK1/2 antibodies. (D) CWR2 and (E) PC3-AR cells were grown in 100 mm dishes and serum-starved for 24 hours. The cells were treated with HF, EGF or ethanol vehicle for 15 mins and immunoblotted with anti-phospho-ERK1/2 and anti-ERK1/2 antibodies. […] MMTV-ARE-Luc reporter plasmid was cotransfected with or without pSG5AR into DU145 cells. After 18 hours, cells were treated with 1 nM DHT, 1 μM HF or both for another 18 hours, and then harvested. Cell lysates were collected and assayed for the luciferase activity.
# (§1) 9. […] After 15 min treatment, cells were lysed and immunoblotted with anti-phospho ERK1/2 and antiERK1/2 antibodies. […] EGFR was immunoprecipitated from the cell lysates, and their phosphotyrosine level was determined by anti-phosphotyrosine antibody. All the results were visualized using enhanced chemiluminescence.
# 198. This assay uses a polyclonal antibody specific against the activated p44/42 MAP kinases (Cell Signaling Technology, Beverly, Mass.), which detects p44 and p42 MAP kinase (ERK1 and 2) only when catalytically activated by dual phosphorylation at Thr202 and Tyr204. DU145 cells were seeded at 1×10^5 cells per 100 mm plate and allowed to attach overnight and then the media were replaced with serum-free DMEM media for 24 hours. The cells were pre-treated with MAP kinase inhibitors, EGFR antibodies, or cycloheximide for 1 hour and followed by HF, EGF, or vehicle treatment. Cells were washed twice with PBS, harvested at indicated times, and lyzed with RIPA buffer for 30 min on ice. The protein concentrations were determined by Bradford assay, and equal amount of protein was resolved by SDS-PAGE. Gels were transferred, immunoblotted with p44/42 MAP kinase antibody (1/1000), and then incubated with secondary antibody. Proteins were visualized by the enhanced chemiluminescence system (NEN™ Life Science Products, Boston, Mass.). P44/42 MAP kinase (total ERK1/2) was blotted as a control.
# [5] = target: T1, EGFR (Homo sapiens, UniProt P00533); assay: EGFR immunoprecipitation and anti-phosphotyrosine immunoblot in DU145 cells; format: cell-based; settings: 1 μM HF, 20 min
# T1 construct: endogenous in cells; host or cells: DU145
# T1 sequence (P00533 25-1210): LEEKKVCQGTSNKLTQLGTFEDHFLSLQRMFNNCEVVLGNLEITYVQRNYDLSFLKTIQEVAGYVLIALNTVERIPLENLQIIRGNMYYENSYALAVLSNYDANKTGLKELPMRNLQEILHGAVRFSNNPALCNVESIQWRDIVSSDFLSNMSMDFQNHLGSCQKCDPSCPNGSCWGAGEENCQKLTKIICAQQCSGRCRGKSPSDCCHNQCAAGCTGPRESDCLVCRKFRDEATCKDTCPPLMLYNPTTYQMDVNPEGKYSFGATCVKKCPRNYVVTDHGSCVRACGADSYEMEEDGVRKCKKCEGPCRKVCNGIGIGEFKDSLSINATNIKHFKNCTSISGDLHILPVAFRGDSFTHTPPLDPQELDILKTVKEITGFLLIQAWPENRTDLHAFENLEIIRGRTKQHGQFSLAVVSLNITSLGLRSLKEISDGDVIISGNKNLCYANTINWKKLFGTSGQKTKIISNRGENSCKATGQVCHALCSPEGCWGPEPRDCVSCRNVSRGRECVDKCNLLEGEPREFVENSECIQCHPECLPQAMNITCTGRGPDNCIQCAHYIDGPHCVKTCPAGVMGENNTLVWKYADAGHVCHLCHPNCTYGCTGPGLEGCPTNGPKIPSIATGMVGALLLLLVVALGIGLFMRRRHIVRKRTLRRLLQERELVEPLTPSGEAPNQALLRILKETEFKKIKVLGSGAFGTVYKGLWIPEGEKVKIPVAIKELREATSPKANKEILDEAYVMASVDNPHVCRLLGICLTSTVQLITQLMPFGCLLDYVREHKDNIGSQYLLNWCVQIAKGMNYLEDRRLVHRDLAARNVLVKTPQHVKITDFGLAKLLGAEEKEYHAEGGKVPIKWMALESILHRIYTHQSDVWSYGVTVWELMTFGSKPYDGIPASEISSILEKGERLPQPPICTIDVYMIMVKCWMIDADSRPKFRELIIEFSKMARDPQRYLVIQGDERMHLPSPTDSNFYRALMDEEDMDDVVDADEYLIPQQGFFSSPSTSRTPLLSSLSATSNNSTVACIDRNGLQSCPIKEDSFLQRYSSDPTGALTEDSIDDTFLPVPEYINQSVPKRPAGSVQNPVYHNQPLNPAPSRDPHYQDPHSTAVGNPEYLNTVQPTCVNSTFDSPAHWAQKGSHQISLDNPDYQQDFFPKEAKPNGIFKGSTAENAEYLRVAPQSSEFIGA
# Procedure: as §1
# [6] = HF at 1 μM, serum-starved DU145 cells
smiles,measurement,setting,value
"CC(C)(O)C(=O)Nc1ccc([N+](=O)[O-])c(C(F)(F)F)c1 [HF, hydroxyflutamide]",cell proliferation,[1]; cells maintained in 10% FBS medium (data not shown),no significant stimulation of cell proliferation
same,cell proliferation,[1]; low serum (0.5% FBS) after serum starvation,stimulate the DU 145 cell growth significant; also recorded: can promote cell proliferation
same,MAP kinase activation,[2],activates MAP kinase
same,MAP kinase activation,[3],not
same,activation of MAP kinase as compared to EGF activation,[4],relatively weak
same,total MAP kinase (ERK1/2) protein expression,[4]; DU145 cells,no influence
same,time to activate MAP kinase,[4]; [6],≤ 15 min
same,time to reach maximum MAP kinase activation,[4]; [6],30 min
same,autophosphorylation of EGFR,[5],causes the autophosphorylation of EGFR
